Measured values from patent publication US8653238B2, “Compositions and methods for transport of molecules with enhanced release properties across biological barriers” (The Board of Trustees of the Leland Stanford Junior …, priority 2006, dated 2014).
“And” between values parts separate entries of the source, which are not always exact repeats. Equal entries are not always repeated. Non-standard residues stand in square brackets, D forms with d. Residues, ends and D or L forms follow the SMILES beside them. *: point of attachment. Paclitaxel(2'-OCO(CH2)3S) = CC(=O)O[C@H]1C(=O)[C@@]2(C)[C@H]([C@H](OC(=O)c3ccccc3)[C@]3(O)C[C@H](OC(=O)[C@H](OC(=O)CCCS*)[C@@H](NC(=O)c4ccccc4)c4ccccc4)C(C)=C1C3(C)C)[C@]1(OC(C)=O)CO[C@@H]1C[C@@H]2O; X1 = O=C(OCCCS*)Oc1ccc2nc(C3=N[C@@H](C(=O)O)CS3)sc2c1

How the values were obtained:
[1] = test system: PC3M-luc prostate cancer cell line stably transfected with luciferase; assay: Cellular assay for luciferin release from conjugates (Example 6); format: cell-based
Description: The PC3M-luc prostate tumor cell line (Jenkins et al., Clin. Exp. Metastasis 20:733 (2003)), was plated at 60,000 cells per well in 96 well, flat bottomed plates twelve hours prior to the assay. […] The cells were washed to remove extracellular luciferin or conjugate, resuspended with the appropriate buffer, and the resultant luminescence measured using a charged coupled device camera and Living Image software (IVIS200, Xenogen Corp., Alameda, Calif.) (see Cao et al., Proc. Natl. Acad. Sci. U.S.A. 101:221 (2004)).

[2] = test system: transgenic (FVB-luc+) mice; assay: Bioluminescence after intradermal injection into luciferase transgenic mice; format: in vivo
OVCA429TP = assay: cells
Description: (§1) FIG. 12 depicts an assay for GI50 (nM) of 429 Ovarian Cancer Lines, 20 min pulse with indicated compounds. The cells were pulsed for 20 min, washed (×2) and incubated for 72 hr in fresh media. For each compound, three bars are depicted, for 429 cells, 429 T cells, and 429 TP cells (from left to right).
(§2) The cells were pulsed with conjugates administered in PBS (pH=7.4) and Taxol (administered in DMSO) for 20 min. Then the solution was removed, the cells were washed twice and incubated in fresh media for 72 hr. The presence of live cells were measured based on the standard MTS assay.

OVCA429T = assay: cells
Description: as §1, §2

OVCA429 = assay: cells
Description: as §1, §2

FVB-luc+ mice skin = assay: Bioluminescence after topical application to skin of luciferase transgenic mice (Example 7); format: in vivo
Description: For imaging assays to assess skin transport, hair was removed from the animals by clipping with a large hair clipper on the right flank. Subsequently, Nair® (NAIR is a registered trademark of Church & Dwight Co., Inc., Princeton N.J., USA for a depilatory cream) was applied for 90 seconds, wiped off, and the animals were washed well with wet paper towels and dried. Five days were allowed for stratum corneum regrowth before the mice were used for imaging.
Formulations for topical application of conjugates were prepared as follows. […] Luminescence was observed over approximately 60 minutes.
In vivo bioluminescence imaging was carried out as follows. Animals were imaged in a dark chamber using a cooled CCD camera (IVIS100 Xenongen Corp.) as previously described 45 and the data were analyzed using LivingImage software (Xenogen Corp.). Data are expressed as photons/ster radian/sec for each region of interest such that the data are not dependent on camera settings, chamber geometry or integration time.
The most reproducible method to evaluate the relative performance of transporters and linkers was to apply a single drop of a solution of each conjugate to the flank of anesthetized FVB-luc+ mice. The drop was allowed to remain in contact with the skin for the duration of the assay during which luminescence from the animal was monitored. […]

physchem = conditions: buffer, pH 7.4
Description: The stabilities of the conjugates were assayed by measuring their decomposition when incubated in HEPES buffered saline (HBS, pH 7.4) at 37° C. using analytical HPLC. […] At appropriate time points 20 μl of the solutions were removed and analyzed by reverse phase HPLC. The percent decomposition was calculated from the integrated peak areas of the conjugate, the internal standard, and the various decomposition products.

[3] = 429TP cells (Taxol resistant, unknown mechanism), 20 min pulse, 72 hr
[4] = 429T cells (Taxol resistant, PGP overexpression), 20 min pulse, 72 hr
[5] = 429 cells, 20 min pulse, washed ×2, 72 hr in fresh media, conjugates in PBS pH 7.4, taxol in DMSO

## O=C(O)[C@H]1CSC(c2nc3ccc(O)cc3s2)=N1 [luciferin, reference compound]
[1]; K+HBS versus HBS, 25 μM luciferin
  change of luminescence in K+HBS: increased slightly
[2]; mouse, in vivo
  area under the curve relative to 200 nM dose: 10.24%
[2]; mouse, in vivo, pH 7.4
  area under the curve of bioluminescence: 3.02×10^10 photons and 3.11×10^9 photons

## CC(=O)N[C@H](CSSCCCC(=O)O[C@@H](C(=O)O[C@H]1C[C@@]2(O)[C@@H](OC(=O)c3ccccc3)[C@@H]3[C@]4(OC(C)=O)CO[C@@H]4C[C@H](O)[C@@]3(C)C(=O)[C@H](OC(C)=O)C(=C1C)C2(C)C)[C@@H](NC(=O)c1ccccc1)c1ccccc1)C(=O)N[C@H](CCCNC(=N)N)C(=O)N[C@H](CCCNC(=N)N)C(=O)N[C@H](CCCNC(=N)N)C(=O)N[C@H](CCCNC(=N)N)C(=O)N[C@H](CCCNC(=N)N)C(=O)N[C@H](CCCNC(=N)N)C(=O)N[C@H](CCCNC(=N)N)C(=O)N[C@H](CCCNC(=N)N)C(N)=O [Compound 62, Taxol C2′ Octaarginine Conjugate 62] (Ac-[dC](Paclitaxel(2'-OCO(CH2)3S))[dR][dR][dR][dR][dR][dR][dR][dR]-NH2)
OVCA429TP; [3]
  GI50: 101 nM
OVCA429T; [4]
  GI50: 420 nM
OVCA429; [5]
  GI50: 12 nM

## CC(=O)O[C@H]1C(=O)[C@@]2(C)[C@H]([C@H](OC(=O)c3ccccc3)[C@]3(O)C[C@H](OC(=O)[C@H](O)[C@@H](NC(=O)c4ccccc4)c4ccccc4)C(C)=C1C3(C)C)[C@]1(OC(C)=O)CO[C@@H]1C[C@@H]2O [taxol, paclitaxel, reference compound]
OVCA429TP; Homo sapiens
  GI50: 8480 nM
OVCA429T; Homo sapiens
  GI50: 15800 nM
OVCA429; Homo sapiens, OVCA429, pH 7.4
  GI50: 147 nM

## CC(=O)N[C@H](CSSCCCC(=O)O[C@H]1C[C@H]2OC[C@@]2(OC(C)=O)[C@H]2[C@H](OC(=O)c3ccccc3)[C@]3(O)C[C@H](OC(=O)[C@H](O)[C@@H](NC(=O)c4ccccc4)c4ccccc4)C(C)=C([C@@H](OC(C)=O)C(=O)[C@]12C)C3(C)C)C(=O)N[C@H](CCCNC(=N)N)C(=O)N[C@H](CCCNC(=N)N)C(=O)N[C@H](CCCNC(=N)N)C(=O)N[C@H](CCCNC(=N)N)C(=O)N[C@H](CCCNC(=N)N)C(=O)N[C@H](CCCNC(=N)N)C(=O)N[C@H](CCCNC(=N)N)C(=O)N[C@H](CCCNC(=N)N)C(N)=O [Compound 67, Taxol C7 Octaarginine Conjugate 67]
OVCA429TP; [3]
  GI50: 93 nM
OVCA429T; [4]
  GI50: 225 nM
OVCA429; [5]
  GI50: 125 nM

## CC(=O)N[C@H](CSSCCCOC(=O)Oc1ccc2nc(C3=N[C@@H](C(=O)O)CS3)sc2c1)C(=O)N[C@H](CCCNC(=N)N)C(=O)N[C@H](CCCNC(=N)N)C(=O)N[C@H](CCCNC(=N)N)C(=O)N[C@H](CCCNC(=N)N)C(=O)N[C@H](CCCNC(=N)N)C(=O)N[C@H](CCCNC(=N)N)C(=O)N[C@H](CCCNC(=N)N)C(=O)N[C@H](CCCNC(=N)N)C(N)=O [5b] (Ac-[dC](X1)[dR][dR][dR][dR][dR][dR][dR][dR]-NH2)
[1]; 1 minute pulse, HBS pH 7.4
  time for luminescent signal to reach background: approximately 1000 seconds
[2]; intradermal injection
  time over which signal increases after injection: 20 min
[2]; intradermal injection of 100 uL of 200 nM in HBS pH 7.4, two different animals
  area under the curve of bioluminescence: 2.54 ×10^10 photons and 2.01 ×10^10 photons
[2]; intradermal injection, photons emitted in 60 minutes × 400 molecules per photon
  theoretical amount of luciferin in the injected sample accounted for: Approximately 80%
FVB-luc+ mice skin; 15 μL of 5 mM in 75% PEG 400/25% 200 mM NaOAc pH 6.0
  amount of luciferin released in one hour: 3.62e-12 mol
FVB-luc+ mice skin; 15 μL of 5 mM in 75% PEG 400/25% 200 mM NaOAc pH 6.0, skin thickness 0.69 mm
  cumulative intradermal concentration of luciferin over one hour: 47 nM
physchem
  half-life at 0.8 mg/ml: 660 min

## CC(=O)N[C@H](CSSCCOC(=O)Oc1ccc2nc(C3=N[C@@H](C(=O)O)CS3)sc2c1)C(=O)N[C@H](CCCNC(=N)N)C(=O)N[C@H](CCCNC(=N)N)C(=O)N[C@H](CCCNC(=N)N)C(=O)N[C@H](CCCNC(=N)N)C(=O)N[C@H](CCCNC(=N)N)C(=O)N[C@H](CCCNC(=N)N)C(=O)N[C@H](CCCNC(=N)N)C(=O)N[C@H](CCCNC(=N)N)C(N)=O [5a]
physchem
  half-life at 0.8 mg/ml: 180 min
